Results published in patent publication US12533362B2, “Methods for treating diseases associated with ciliopathies” (ALEXION PHARMACEUTICALS, INC., priority 2017, dated 2026).
pEC50: −log10 of the molar value.

Legend:
Nphp1−/− mice = assay: retinal degeneration in Nphp1−/− mouse model; format: in vivo
Description: Homozygous deletion of NPHP1 is the most common cause of juvenile nephronophthisis 1. Homozygous or compound heterozygous mutations in NPHP1 are also associated with, for example, Joubert syndrome 4 (brain abnormalities) and Senior-Løken syndrome 1 (retinopathy). NPHP1 KO animals were generated to test whether taprenepag can be used to treat these diseases. To establish a CRISPR/Cas9-engineered Nphp1^−/− mouse model, single guide RNAs were injected in C57BL/6J embryos, and generated a 76 bp deletion encompassing the ATG in exon 1 of Nphp1. To characterize the natural history of Nphp1^−/− mouse model, histochemical staining of kidney and retina sections was performed from Nphp1^+/+ and Nphp1^−/− mice.
To evaluate the retinal degeneration, a semi-automated tool was developed to provide detection and quantitative thickness measurements of each retinal layers at five distant plans manually marked on the retinal section (FIG. 38B). Semi-automated quantification analysis confirms a clear decrease in thickness of photoreceptors layers ONL, IS and OS (FIG. 38C).
To assess the effect of Nphp1 deletion on the structural organization of photoreceptors in this model, immunohistochemistry (IH) analysis was performed on retina sections from Nphp1^+/+ and Nphp1^−/− mice (FIGS. 39A and B). Tissues were fixed and fluorescence-labeled with DAPI (for nuclei staining), anti-rhodopsin antibody (for OS staining), and anti-Cep290 antibody (for connecting cilia staining) or PNA (for OS and IS staining), detected using immunofluorescence microscopy.
To assess the effect of Nphp1 deletion on the functionality of photoreceptors, electroretinogram (ERG) was performed on Nphp1^+/+ and Nphp1^−/− mice, under light stimuli of different intensities (FIGS. 40A-C). FIGS. 40A and B show ERG a- and b-waves recorded from the same animals at P21, for a given light intensity. In contrast with Nphp1^+/+ mice, Nphp1^−/− mice display drastically lower ERG amplitudes at a given intensity of light stimulus. […]

zebrafish NPHP4 MO = assay: zebrafish NPHP4 morpholino (MO) model; format: in vivo
Description: Briefly, wild-type Tg(wt1b:GFP) transgenic zebrafish embryos were injected with morpholino (e.g., nphp4 ATG MO) at one-cell stage. At 8 hours post-fertilization (hpf), injected embryos were treated with drug or vehicle in PTU-egg water (1 mL in 12-well plates). At 24 hpf, drug treatment was renewed, and pronase was added at 36 hpf for chorion removal.

[1] = pharmacokinetics study in wild type mice; conditions: intraperitoneal; taprenepag isopropyl 1 mg/kg or 8 mg/kg, taprenepag 8 mg/kg; different time points
Description: After intraperitoneal injections of taprenepag isopropyl (1 mg/kg or 8 mg/kg) or taprenepag (8 mg/kg), the concentrations of these compounds in various organs were determined at different time points.

[2] = tested on: NPHP patient-derived cells; assay: automated cilia-based ciliogenesis assay in NPHP patient-derived cells; format: cell-based, human; conditions: for effect on ciliogenesis (percentage of ciliated cells) as compared with DMSO: drug screening, various tested concentrations, FIG. 5 / FIG. 6; for restoration of ciliogenesis at the highest concentration: 40 μM dinoprostone and 20 μM dmPGE2, may be due to cytotoxicity; for ciliogenesis restorative effect: FIG. 11A
Excerpt: (§1) To identify compounds for treating diseases associated with ciliopathies such as, for example, NPHP, NPHP patient-derived cells were obtained and cell lines were established. Briefly, peeled renal epithelial cells, which are mostly proximal tubule cells (tbc) recovered from urine of NPHP1-deficient patients, were immortalized by retroviral gene transfer of SV40 T antigen. Cells were fixed and fluorescence-labeled with Hoechst (for nuclei staining), anti-γ-tubulin antibody (for basal bodies staining), and anti-ARL13B antibody (for cilia staining) for detection using immunofluorescence microscopy.
(§2) Briefly, NPHP patient-derived cells and control cells were cultured in complete media, at 39C (non-permissive temperature for SV40 expression), followed by automatic cilia analysis using immunofluorescence microscopy to measure ciliogenesis, e.g., in terms of % cilia. A spinning disk platform may be used for drug screening (FIG. 5, A-J) and ciliogenesis analysis of G3 multi-OMICs dataset (FIG. 29, A-E).
(§3) The cilia-based assay described above may be used to identify compounds that restore ciliogenesis. […] Automated random acquisition of 35 images per well may be performed, for example. Each image may have z-stack of 10 images taken at <1 μm intervals.

EP4 receptor = EP4 receptor (Homo sapiens, UniProt P35408); conditions: cited from earlier work
[3] = tested on: control normal epithelial cells; assay: automated cilia-based ciliogenesis assay in control normal epithelial cells; format: cell-based, human; conditions: control normal cells, FIG. 11A
Excerpt: as §1, §2
as §3, with “intervals. Consecutive imaging of nucleus (Hoechst at 461 nm), basal body (γ-tubulin at 555 nm) and cilia (ARL13b at 647 nm) may be obtained.” for “intervals.”

control cells = assay: exogenous PGE2 effect on cilia in control cells; format: cell-based; conditions: addition of exogenous PGE2, FIG. 12
[4] = meta-analysis, multiple NPHP patient-derived cell lines

Sequence of EP4 receptor (P35408 whole entry): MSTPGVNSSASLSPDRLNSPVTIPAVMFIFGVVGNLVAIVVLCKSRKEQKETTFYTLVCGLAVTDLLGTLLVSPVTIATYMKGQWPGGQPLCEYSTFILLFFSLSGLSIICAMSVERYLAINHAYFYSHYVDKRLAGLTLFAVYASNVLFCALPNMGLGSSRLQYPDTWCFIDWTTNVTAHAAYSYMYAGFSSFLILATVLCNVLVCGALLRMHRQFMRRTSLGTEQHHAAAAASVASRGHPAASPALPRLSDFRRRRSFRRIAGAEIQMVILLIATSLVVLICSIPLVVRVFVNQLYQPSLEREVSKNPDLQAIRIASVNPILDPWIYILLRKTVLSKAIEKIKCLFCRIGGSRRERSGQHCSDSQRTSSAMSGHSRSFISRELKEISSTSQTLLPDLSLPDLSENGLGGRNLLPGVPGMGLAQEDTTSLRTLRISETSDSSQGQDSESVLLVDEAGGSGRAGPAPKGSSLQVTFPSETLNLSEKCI

SMILES: O=C(O)COc1cccc(CN(Cc2ccc(-n3cccn3)cc2)S(=O)(=O)c2cccnc2)c1 [CP-544326, taprenepag]
- ONL/OPL retina layers thicknesses ratio (Nphp1−/− mice; 18 mg/kg i.p. every 3 or 4 days from P6 until P21, vs vehicle, p<0.05 Mann-Whitney test): significantly prevents the decrease of ONL/OPL ratio
- rhodopsin mislocalization (Mean Green intensity in ONL) (Nphp1−/− mice; 18 mg/kg i.p., vs vehicle, p<0.05 unpaired t-test): significantly prevented rhodopsin mislocalization
- electroretinogram a-wave amplitude of photoreceptor response (Nphp1−/− mice; 18 mg/kg i.p., vs vehicle-treated Nphp1−/− mice): slight improvement in the amplitude of photoreceptor response
- % severe, mild and normal pronephric cysts (zebrafish NPHP4 MO; 100 nM vs DMSO, p<0.01 Fischer's exact test): significantly reduces % severe pronephric cysts and increases % mild and normal pronephric cysts
- stability in vivo (concentrations in plasma, kidney, testis, retina, vitreous humor) [1]: more stable than taprenepag isopropyl
- ciliogenesis, dose response compared to DMSO ([2]; FIG. 16B): restores ciliogenesis in a dose-dependent manner
- ciliogenesis as compared with DMSO ([2]; cell lines 1-09-P, 1-06-P1 and 1-06-P2 derived from NPHP1(del) patients, FIG. 17C): increases ciliogenesis in multiple cell lines
- ciliogenesis, meta-analysis ([2]; compared with alprostadil, FIG. 16A): restores ciliogenesis to a similar level as alprostadil
- linear regression pooled slope value of effect on ciliogenesis [2, 4]: 1.36
- linear regression range of slope values of effect on ciliogenesis [2, 4]: 1.245 to 1.532
- pEC50 ([2]; semi-log representation of ciliogenesis titration, FIG. 16C, read-out: EC50 for EP2 from CP-544326 titration): 7.96

SMILES: Cc1cccc([C@@H](C)[C@H](O)/C=C/[C@@H]2[C@@H]3[C@H](C[C@H]2O)O/C(=C\CCCc2nnn[nH]2)C3(F)F)c1 [KAG-308]
- EP4 agonist potency (EP4 receptor): low nanomolar EP4-agonist

SMILES: O=C1CC[C@H](/C=C/[C@@H](O)C(F)(F)c2ccccc2)N1CCCCCCc1nnn[nH]1 [L902,688]
- effect on ciliogenesis ([2]; prostanoid EP4 agonist, FIG. 17A): does not significantly affect ciliogenesis

SMILES: COc1ccc(C2CC(c3ccccc3)=NN2c2ccc(S(N)(=O)=O)cc2)cc1 (stereo not drawn) [ML-141]
- effect on ciliogenesis (percentage of ciliated cells) as compared with DMSO [2]: did not have a significant effect on ciliogenesis

SMILES: CCCCC[C@H](O)/C=C/[C@H]1[C@H](O)CC(=O)[C@@H]1C/C=C\CCCC(=O)O [dinoprostone, prostaglandin E2]
- % severe, mild and normal pronephric cysts (zebrafish NPHP4 MO; 50 μM vs DMSO, p<0.008 Fischer's exact test): significantly reduced % severe and mild pronephric cysts and increased % normal pronephric cysts
- % normal body axis curvature (zebrafish NPHP4 MO; 50 μM vs DMSO, p=0.0066 Fischer's exact test): significantly increases % normal body axis curvature
- dorsal curvature (zebrafish NPHP4 MO; 50 μM vs DMSO, p=0.0577 t-test): did not significantly affect dorsal curvature
- effect on ciliogenesis [3]: no significant effect was observed
- cilia length and percentages of ciliated cells (control cells): increased both cilia length and percentages of ciliated cells
- restoration of ciliogenesis at the highest concentration [2]: slight decrease in restoration of ciliogenesis
- ciliogenesis restorative effect [2]: ciliogenesis restorative effects similar to that of alprostadil

SMILES: CCCCC(C)(C)[C@H](O)/C=C/[C@H]1[C@H](O)CC(=O)[C@@H]1C/C=C\CCCC(=O)O [dmPGE2, 16,16-dimethyl-PGE2]
- effect on ciliogenesis [3]: no significant effect was observed
- restoration of ciliogenesis at the highest concentration [2]: slight decrease in restoration of ciliogenesis
- ciliogenesis restorative effect [2]: ciliogenesis restorative effects similar to that of alprostadil

SMILES: CCN(CC)C(C)CN1c2ccccc2Sc2ccccc21 (stereo not drawn) [ethopropazine]
- effect on ciliogenesis (percentage of ciliated cells) as compared with DMSO [2]: did not have a significant effect on ciliogenesis

SMILES: O=C1c2c(O)ccc(O)c2C(=O)c2c(NCCNCCO)ccc(NCCNCCO)c21 [mitoxantrone]
- effect on ciliogenesis (percentage of ciliated cells) as compared with DMSO [2]: did not have a significant effect on ciliogenesis

SMILES: CC(=O)O[C@H]1C(=O)[C@@]2(C)[C@H]([C@H](OC(=O)c3ccccc3)[C@]3(O)C[C@H](OC(=O)[C@H](O)[C@@H](NC(=O)c4ccccc4)c4ccccc4)C(C)=C1C3(C)C)[C@]1(OC(C)=O)CO[C@@H]1C[C@@H]2O [paclitaxel]
- effect on ciliogenesis (percentage of ciliated cells) as compared with DMSO [2]: did not have a significant effect on ciliogenesis

SMILES: CN(C)CCC(c1ccccc1)c1ccccn1 (stereo not drawn) [pheniramine]
- effect on ciliogenesis (percentage of ciliated cells) as compared with DMSO [2]: did not have a significant effect on ciliogenesis

SMILES: CN1[C@@H]2CC[C@H]1C[C@@H](OC(=O)c1c[nH]c3ccccc13)C2 [tropisetron]
- effect on ciliogenesis (percentage of ciliated cells) as compared with DMSO [2]: did not have a significant effect on ciliogenesis

SMILES: COc1ccc(CCN(C)CCCC(C#N)(c2ccc(OC)c(OC)c2)C(C)C)cc1OC (stereo not drawn) [verapamil]
- effect on ciliogenesis (percentage of ciliated cells) as compared with DMSO [2]: did not have a significant effect on ciliogenesis
